The values below come from US20070015733A1, “Aryl Phosphate Derivatives of d4T having Activity Against Resistant HIV Strains” (Parker Hughes Institute, priority 1998, published 2007).

Read-outs that look alike come from different tables or passages of the source.

The test system of experiment [1] is HIV-1 (HTLVIIIB) in TK-deficient CEM T-cells. As to the kind of experiment: Inhibition of HIV-1 replication in TK-deficient CEM T-cells (p24 / RT activity). Type of experiment: cell-based. Conditions: TK-deficient CEM T-cells, read-out: CEM IC50 [RT]. How it is done: (§1) Percent inhibition of viral replication was calculated by comparing the p24 and RT activity values from the test substance-treated infected cells with those from untreated infected cells. In parallel, the cytotoxicity of the compounds was examined using a microculture tetrazolium assay (MTA) of cell proliferation, as described.in the Zarling, Enrice, and Uckun articles Supra).
(§2) Cellular Assays of Anti-HIV Activity and Cytotoxicity. […] Percent viral inhibition was calculated by comparing the RT activity values from the test substance-treated infected cells with RT values from untreated infected cells (i.e., virus controls).

A further experiment has as its system HIV-1 (strain: HTLVIIIB). Put plainly: microbe, parasite or virus in culture. Type of experiment: cell-based. The settings on record: PBMNC, read-out: PBMNC IC50 [RT]. On the procedure: as §1, §2
Experiment [2] relates to NRTI-resistant recombinant HIV-1 isolates. Put plainly: Documented fold decreased susceptibility of recombinant HIV-1 clones. Type of experiment: cell-based. The settings on record: for mean reduction in susceptibility: mean over 6 recombinant clones; for median reduction in susceptibility: median over 6 recombinant clones.
For experiment [3] the test system is unchanged. Conditions: cited from earlier work.
The test system is the same in experiment [4]. Put plainly: p24 assay, multi-NRTI-resistant recombinant HIV-1 clones. Type of experiment: cell-based.
For experiment [5] the test system is unchanged. Put plainly: RT activity assay, multi-NRTI-resistant recombinant HIV-1 clones. The format is cell-based.
For the next experiment, the system named is HIV-1 HTLVIIIB
As to the kind of experiment: microbe, parasite or virus in culture. The settings on record: Human immunodeficiency virus 1, PBMC. On the procedure:
In vitro assays of anti-HIV-1 activity. Normal human peripheral blood mononuclear cells (PBMNC) from HIV-negative donors were cultured 72 hours in RPMI 1640 supplemented with 20% (v/v) heat-inactivated fetal bovine serum (FBS), 3% interleukin-2, 2 mM L-glutamine, 25 mM HEPES, 2 g/L NaHCO3, […], and […] prior to exposure to HIV-1 at a multiplicity of infection (MOI) of 0.1 during a 1 hour adsorption period at 37° C. in a humidified 5% CO2 atmosphere. Subsequently, cells were cultured in 96-well microtiter plates ([…]; 2×10^6 cells/mL) in the presence of various concentrations of d4T phosphoramidates and aliquots of culture supernatants were removed from the wells on the 7th day after infection for p24 antigen assays, as previously described (Uckun et al., 1998, Antimicrobial Agents and Chem., 42(2):383-388). The applied p24 enzyme immunoassay (EIA) was the unmodified kinetic assay commercially available from Coulter Corporation/Immunotech, Inc. (Westbrooke, Me.), which utilizes a murine mAb to HIV core protein coated onto microwell strips to which the antigen present in the test culture supernatant samples binds. Percent viral inhibition was calculated by comparing the p24 values from untreated infected cells (i.e., virus controls).
The anti-HIV activity of the compounds was examined by evaluating their ability to inhibit HIV replication in peripheral blood mononuclear cells using previously described procedures (Uckun et al., 1998, Antimicrobial Agents and Chem., 42(2):383-388). Percent inhibition of viral replication was calculated by comparing the p24 antigen levels from the test substance-treated infected cells with those from vehicle-treated infected cells.
Antiviral susceptibility assays. Phenotypic drug susceptibility studies of HIV-1 isolates and strains were performed by measuring the production of the p24 gag protein in peripheral blood mononuclear cells (PBMC) from seronegative healthy volunteers in the presence of increasing concentrations of the anti-HIV agent using the quantitative Coulter HIV-1 p24 antigen ezyme immunoassay (EIA) and HIV-1 p24 Antigen Kinetic Standard (Beckman Coulter), as previously described (Uckun, 1998, Antimicrobial Agents and Chemotherapy 37(4): 835-38). Informed consent was obtained from the blood donors according to DHHS guidelines using consent forms approved by the Institutional Review Board. In brief, PBMC were cultured for 72 h in RPMI 1640 medium (Gibco) supplemented with 20% (vol/vol) heat-inactivated fetal bovine serum, 5% human interleukin-2 (Zeptometrix), 2 mM L-glutamine, 25 mM HEPES, 2 g/L NaHCO3, 100 U/ml penicillin/streptomycin (Gibco), 50 μg/ml gentamicin (Gibco), and 5 μg/ml phytohemagglutinin-P (PHA-P) (Sigma) for 24-72 hours prior to exposure to HIV at a multiplicity of infection of 0.001-0.1 during a 1-h adsorbtion period at 37±1° C. in a humidified 5-7% CO2 atmosphere. Subsequently, cells were cultured in 96-well microtiter plates (100 μl/well; 2×10^6 cells/ml, triplicate wells) in the presence of the anti-HIV agents at 6-7 different concentrations ranging from 0.0001 μM to 100 μM, and 25 μL aliquots of culture supernatants were removed from the wells on day 6 after infection for p24 EIA, as previously described (Uckun, 1998, Antimicrobial Agents and Chemotherapy, 37(4):835-38). Controls included uninfected and untreated cells (background control) and infected but untreated (virus control) cells. The p24 EIA utilizes a murine monoclonal antibody to HIV core protein used to coat microwell strips to which the antigen present in the test culture supernatant samples binds. Percent inhibition of viral replication was calculated by comparing the p24 values from the test substance-treated infected cells with p24 values from untreated infected cells (i.e., virus controls). The IC50 values were determined using the Statview statistics program (SAS Institute, Inc.).

Where [6] appears, read: unit not given in Table 5 (0.04 = 40 nM).
Where [7] appears, read: Human immunodeficiency virus 1, read-out: IC50 (nM), p24, recombinant clone 1617-1 (151 complex).
Setting [8] is: Human immunodeficiency virus 1, read-out: IC50 (nM), p24, recombinant clone 4755-5.
The mark [9] stands for this setting: Human immunodeficiency virus 1, read-out: IC50 (nM), p24, recombinant clone 7295-1.
Setting [10] is: Human immunodeficiency virus 1, read-out: IC50 (nM), p24, recombinant clone 7324-1.
Setting [11] is: Human immunodeficiency virus 1, read-out: IC50 (nM), p24, recombinant clone 52252-1 in Table 18, 56252-1 in Tables 19 and 20 (K65R, 151 complex).
Where [12] appears, read: Human immunodeficiency virus 1, read-out: IC50 (nM), p24, recombinant clone printed 52534-1 in Table 18, 52534-2 in Tables 19 and 20 (69 insertion complex).
Where [13] appears, read: Human immunodeficiency virus 1, read-out: IC50 (nM), RT, recombinant clone 1617-1.
Where [14] appears, read: Human immunodeficiency virus 1, read-out: IC50 (nM), RT, recombinant clone 4755-5.
Where [15] appears, read: Human immunodeficiency virus 1, read-out: IC50 (nM), RT, recombinant clone 7295-1.
Setting [16] is: Human immunodeficiency virus 1, read-out: IC50 (nM), RT, recombinant clone 7324-1.
Setting [17] is: Human immunodeficiency virus 1, read-out: IC50 (nM), RT, recombinant clone 52534-2.
[18] abbreviates: Human immunodeficiency virus 1, read-out: IC50 (nM), RT, recombinant clone 56252-1.
[19] abbreviates: Human immunodeficiency virus 1, read-out: mean IC50, RT, mean over 6 multi-NRTI-resistant clones.

In the case of “3dT-5′-(para-bromophenyl methoxyalaninyl phosphate) [Compound 2d]”, the IC50 (as a rule, the concentration needed to halve the response being measured) amounted to 22800 nM in experiment [1] (Table 4), 22800 nM in experiment [1] (Table 5), 1200 nM with HIV-1 (strain: HTLVIIIB) (Table 4) and 1200 nM in the experiment with HIV-1 (strain: HTLVIIIB) (setting [6]).

As to `COC(=O)C(C)NP(=O)(OCC1CCC(n2cc(C)c(=O)[nH]c2=O)O1)Oc1ccc(F)cc1` (mixture of isomers) [Compound 2c], the values for the IC50 (in experiment [1] (Table 4); with HIV-1 (strain: HTLVIIIB) (Table 4)) were 32700 nM and 3100 nM, respectively.

In the case of `COC(=O)C(C)NP(=O)(OCC1CCC(n2cc(C)c(=O)[nH]c2=O)O1)Oc1ccc([N+](=O)[O-])cc1` (mixture of isomers) [Compound 2e], the 50% inhibitory concentration (IC50) stood at 22600 nM in experiment [1] (Table 4) and 2000 nM with HIV-1 (strain: HTLVIIIB) (Table 4).

For `COC(=O)[C@H](C)NP(=O)(OC[C@@H]1CC[C@H](n2cc(C)c(=O)[nH]c2=O)O1)Oc1ccccc1` (stereo partly drawn) [Compound 2a], the IC50 was 7500 nM in experiment [1] (Table 4), 7500 nM in experiment [1] (Table 5), 2100 nM in the experiment on HIV-1 (strain: HTLVIIIB) (Table 4) and 2100 nM in the experiment on HIV-1 (strain: HTLVIIIB) (setting [6]).

In the case of `Cc1cn([C@H]2CC[C@@H](CO)O2)c(=O)[nH]c1=O` [Compound 3dT, 3′-deoxythymidine], the IC50 in experiment [1] (Human immunodeficiency virus 1, T-cell, Table 4) stood at 91200 nM; in experiment [1] (Human immunodeficiency virus 1, T-cell, Table 5), 91200 nM; with HIV-1 (strain: HTLVIIIB) (Human immunodeficiency virus 1, Table 4), 700 nM.

Consider `COC(=O)C(C)NP(=O)(OCC1OC(n2cc(C)c(=O)[nH]c2=O)CC1N=[N+]=[N-])Oc1ccccc1` (stereo not drawn) [Compound 5a], for which, in experiment [1] (Table 5), the IC50 came out at 1700 nM.

On to `COC(=O)C(C)NP(=O)(OCC1OC(n2cc(C)c(=O)[nH]c2=O)CC1N=[N+]=[N-])Oc1ccc(OC)cc1` (stereo not drawn) [Compound 5b], for which the figures for the IC50 (in experiment [1] (Table 5); with HIV-1 (strain: HTLVIIIB) (setting [6])) were 4100 nM and 100 nM, respectively.

On to `Nc1nc(NC2CC2)c2ncn([C@H]3C=C[C@@H](CO)C3)c2n1` [abacavir], for which the “mean reduction in susceptibility” value in experiment [2] came out at 40 fold. In addition, the “median reduction in susceptibility” value in experiment [2] was determined as 14.9 fold. Also, the Fold decreased susceptibility is reported as greater than 100 fold in experiment [3] (recombinant clone 1617-1); 7.7 fold in experiment [3] (recombinant clone 4755-5); 6.1 fold in experiment [3] (recombinant clone 7295-1); 4.2 fold in experiment [3] (recombinant clone 7324-1); 22 fold in experiment [3] (recombinant clone 52534-2); greater than 100 fold in experiment [3] (recombinant clone 56252-1).

`O=c1[nH]cnc2c1ncn2[C@H]1CC[C@@H](CO)O1` [didanosine]: the “mean reduction in susceptibility” value in experiment [2] is 10.1 fold. Also, the “median reduction in susceptibility” value in experiment [2] is recorded as 2.9 fold. Also, the Fold decreased susceptibility in experiment [3] (recombinant clone 1617-1) was 23 fold; in experiment [3] (recombinant clone 4755-5), 2.4 fold; in experiment [3] (recombinant clone 7295-1) it was 1.9 fold; in experiment [3] (recombinant clone 7324-1) it was 1.7 fold; in experiment [3] (recombinant clone 52534-2), 3.3 fold; in experiment [3] (recombinant clone 56252-1), 28 fold.

For the compound `CC(C)(C)NC(=O)[C@@H]1CN(Cc2cccnc2)CCN1C[C@@H](O)C[C@@H](Cc1ccccc1)C(=O)N[C@H]1c2ccccc2C[C@H]1O` [indinavir], the IC50 in experiment [4] (setting [7]) stood at 20.5 nM; in experiment [4] (setting [8]), 9.4 nM; in experiment [4] (setting [9]), 17.2 nM; in experiment [4] (setting [10]), 21.8 nM; in experiment [4] (setting [11]) it was 9 nM; in experiment [4] (setting [12]), 36.5 nM. The IC50 in experiment [5] (setting [13]) was determined as 5.2 nM; in experiment [5] (setting [14]), 4.8 nM; in experiment [5] (setting [15]) it was 1.4 nM; in experiment [5] (setting [16]), 5.7 nM; in experiment [5] (setting [17]), 12.2 nM; in experiment [5] (setting [18]), 3.7 nM. Also, in experiment [5] (setting [19]), the IC50 was determined as 5.5 ± 1.5 nM.

Take `Nc1ccn([C@@H]2CS[C@H](CO)O2)c(=O)n1` [lamivudine]: the IC50 in experiment [4] (setting [7]) was greater than 10000 nM; in experiment [4] (setting [8]), greater than 10000 nM; in experiment [4] (setting [9]), greater than 10000 nM; in experiment [4] (setting [10]) it was 800 nM; in experiment [4] (setting [11]), greater than 10000 nM; in experiment [4] (setting [12]), greater than 10000 nM. In addition, the half-inhibitory concentration (IC50) is greater than 10000 nM in experiment [5] (setting [13]); greater than 10000 nM in experiment [5] (setting [14]); greater than 10000 nM in experiment [5] (setting [15]); 634 nM in experiment [5] (setting [16]); greater than 10000 nM in experiment [5] (setting [17]); 7210 nM in experiment [5] (setting [18]). The IC50 in experiment [5] (setting [19]) is 7970 ± 1540 nM; with HIV-1 HTLVIIIB, 40 ± 25 nM. Moreover, the “mean reduction in susceptibility” value in experiment [2] was 215.5 fold. Further, the “median reduction in susceptibility” value in experiment [2] was 300 fold. For the same compound, in the experiment with HIV-1 HTLVIIIB, the IC90 – broadly, the point of the concentration-response curve where the effect stands at 90% – is 1820 ± 747 nM.

Take `C[C@H](Cn1cnc2c(N)ncnc21)OCP(=O)(O)O` [tenofovir]: in experiment [2], the “mean reduction in susceptibility” value worked out at 4.9 fold. In experiment [2], the “median reduction in susceptibility” value came to 3.3 fold. The Fold decreased susceptibility in experiment [3] (recombinant clone 1617-1) is on record as 2.4 fold; in experiment [3] (recombinant clone 4755-5) it was 2.3 fold; in experiment [3] (recombinant clone 7295-1) it was 1.1 fold; in experiment [3] (recombinant clone 7324-1), 8.1 fold; in experiment [3] (recombinant clone 52534-2), 4.2 fold; in experiment [3] (recombinant clone 56252-1), 11 fold.
